Reference: publication PMC12297138, “Screening and Identification of Multiple Peptides Homologous to the Fusion Glycoprotein Gc of Schmallenberg Virus Able to Inhibit Viral Infection” (Transboundary and Emerging Diseases, 2025)
pIC50: −log10 of the molar value.

Key:
[1] = test system: BHK-21 cells; experiment: MTT cytotoxicity assay; type: cell-based, Hamster; conditions: 24 h treatment, peptides 1-200 µM, read at 570 nm, triplicate
Experimental: Peptide cytotoxicity was measured by 3- (4, 5-dimethylthiazol-2-yl)-2, 5-diphenyltetrazolium bromide (MTT) assay according to manufacturer's instructions (Sigma-Aldrich, St. Louis, Missouri, United States). BHK-21 cells (4 × 10^4 cells/well) were treated with peptides at different concentrations ranging from 1 µM to 200 and, after 24 h, 100 μL of the MTT solution (5 mg/mL) was incubated for 3 h at 37°C. Then, we used DMSO (Sigma Aldrich) to dissolve tetrazolium salts under agitation. Cytotoxicity was analyzed at 570 nm, and cell viability was measured against control cells—those that received no treatment. At the end, the 50% cytotoxic concentration (CC50) was determined using GraphPad Prism software (GraphPad Software, San Diego, CA, USA).

[2] = test system: Schmallenberg virus (SBV); experiment: Entry assay (temperature shift); type: cell-based; conditions: for pIC50: BHK-21 infected with SBV MOI 0.01 2 h at 4°C, then peptide 1 h at 37°C, plaque count; for SI, Entry: selectivity index CC50 value/IC50 value
Experimental: (§1) Two additional assays were performed. Peptide concentrations are the same as those used in the other treatments. Attachment assay: Cells were infected with the virus (MOI 0.01) and simultaneously each peptide was inoculated for 2 h at 4°C; then, cells were left in CMC for 72 h at 37°C. Entry assay: BHK-21 monolayer was infected with SBV (MOI 0.01) for 2 h at 4°C, followed by the treatment with each peptide for 1 h at 37°C; finally, CMC was added on cells. Similarly to other assays, at the end, viral plaques were observed.

[3] = test system: Schmallenberg virus (SBV); experiment: Cotreatment assay (plaque reduction); type: cell-based; conditions: for percentage of viral inhibition at 100 μM (library screening): cotreatment, peptide 100 μM, SBV on BHK-21 cells, threshold 50% inhibition; for pIC50: peptide + SBV (MOI 0.01) together on BHK-21 cells 2 h 37°C, plaques after 72 h, triplicate; for SI, Cotreatment: selectivity index CC50 value/IC50 value
Source text: Baby Hamster Kidney cells (BHK-21) (ATCC CCL-10, Manassas, VA, USA), Madin–Darby bovine kidney (MDBK, ATCC CCL-22), and Vero/hSLAM cells (ECACC 04091501, Porton Down, United Kingdom) were cultivated in Dulbecco's modified Eagle's medium (DMEM, Microtech, Naples, Italy) supplemented with 10% fetal bovine serum (FBS) (Microtech). Viruses were kindly provided by Professor Giuseppe Iovane (University Federico II, Naples, Italy). Cells were infected with a multiplicity of infection (MOI) of 0.01, and we assessed viral titers through plaque assays.
SBV titration was performed on BHK-21 cells. Briefly, BHK-21 cell monolayers in 12-well cell culture plates were infected with SBV dilutions. After 1 h of incubation, viral inocula were removed and a mixture of DMEM 10% FBS and 3% carboxymethyl cellulose (CMC) was added to all wells. After incubation for 72 h, cells were fixed with 4% formaldehyde solution and stained with 0,5% crystal violet (Sigma-Aldrich, St. Louis, MO, USA). Plaques were scored and stock virus titration was calculated as plaque forming unit (PFU)/ml.
Peptides were dissolved in water. To assess the impact of these peptides on inhibiting SBV infectivity, a very general assay (cotreatment) was performed by treating cells (5 × 10^5 cells/well) with peptides at 200, 100, 50, 25, 12.5, 6.25, and 1 μM and incubating them with the viral inoculum (MOI of 0.01) for 2 h at 37°C. To effectively inactivate nonpenetrated viruses, we treated cells with citrate buffer (pH 3.0) and then cultured BHK-21 for 72 h at 37°C/5% CO2 in DMEM enriched with 10% FBS and CMC. The monolayers were finally fixed and stained, and the plaque number was scored. The percentage of inhibition was calculated in comparison to the control group (cell infected and treated with no peptide).

[4] = test system: Schmallenberg virus (SBV); experiment: Virus pretreatment assay (plaque reduction); type: cell-based; conditions: for pIC50: peptide + SBV (MOI 0.1) 1 h 37°C, then diluted on BHK-21 cells (final MOI 0.01), plaques after 72 h; for SI, Virus pretreatment: selectivity index CC50 value/IC50 value
Experimental: (§2) Peptide concentrations are the same as used in the initial cotreatment assay. Virus pretreatment assay: peptides were added to the virus (MOI of 0.1) for 1 h at 37°C. Following the incubation period, the mixture of virus and peptide was diluted on cells for 2 h: this process allowed the peptides to achieve a nonactive concentration while ensuring that the virus remained at an optimal final MOI of 0.01. Then, the cells underwent a 72-h incubation with CMC. Cell pretreatment: Precooled cells were treated with the peptides for 1 h, followed by the incubation of the viral inoculum (MOI of 0.01) for 2 hr at 37°C. At the end, cells were overlaid with CMC for 72 hr at 37°C. Posttreatment: Cells were treated with peptide following the viral infection (MOI of 0.01 pfu/mL) for 2 h at 37°C; then, CMC was added for 72 h at 37°C. For each treatment, the IC50, which is the peptide concentration resulting in a 50% reduction of SBV infectivity, was calculated.

[5] = test system: Schmallenberg virus (SBV); experiment: Attachment assay (temperature shift); type: cell-based; conditions: for pIC50: BHK-21 cells, SBV MOI 0.01 and peptide simultaneously 2 h at 4°C, plaques after 72 h at 37°C; for SI, Attachment: selectivity index CC50 value/IC50 value
Experimental: as §1

[6] = test system: Schmallenberg virus (SBV); experiment: Posttreatment assay (plaque reduction); type: cell-based; conditions: BHK-21 cells treated with peptide after SBV infection (MOI 0.01, 2 h 37°C); plaques after 72 h
Experimental: as §2

[7] = test system: Schmallenberg virus (SBV); experiment: Cell pretreatment assay (plaque reduction); type: cell-based; conditions: precooled BHK-21 cells treated with peptide 1 h, then SBV MOI 0.01 for 2 h 37°C; plaques after 72 h
Experimental: as §2

| Compound | CC50 [1] [µM] | pIC50 [2] | percentage of viral inhibition at 100 μM (library screening) [3] | pIC50 [3] | pIC50 [4] | pIC50 [5] | pIC50 [6] | SI, Entry [2] | SI, Cotreatment [3] | pIC50 [7] | SI, Virus pretreatment [4] | SI, Attachment [5] |
| --- | --- | --- | --- | --- | --- | --- | --- | --- | --- | --- | --- | --- |
| CC[C@H](C)[C@H](NC(=O)[C@@H](NC(=O)[C@H](CC(C)C)NC(=O)[C@@H](NC(=O)[C@H](CC(N)=O)NC(=O)[C@H](CC(=O)O)NC(=O)[C@H](CCC(N)=O)NC(=O)[C@H](CCC(=O)O)NC(=O)[C@H](CC(C)C)NC(=O)[C@H](CC(C)C)NC(=O)[C@H](CC(C)C)NC(=O)[C@H](CS)NC(=O)[C@H](CO)NC(=O)[C@H](CCC(N)=O)NC(=O)[C@@H](N)Cc1ccc(O)cc1)[C@@H](C)O)[C@@H](C)O)C(=O)N[C@@H](C)C(=O)N[C@@H](CO)C(=O)N[C@H](C(=O)N[C@@H](CO)C(=O)N[C@@H](Cc1c[nH]cn1)C(=O)N[C@@H](CCSC)C(=O)N[C@@H](CCC(=O)O)C(=O)N[C@H](C(=O)N[C@@H](Cc1c[nH]cn1)C(=O)N[C@@H](CCCCN)C(=O)O)C(C)C)[C@@H](C)O [Gc49] | 200 | 4.70 | greater than 50% | 5.00 | 5.00 | 4.60 |  |  |  |  |  |  |
| CC[C@H](C)[C@H](NC(=O)[C@H](CO)NC(=O)[C@@H](N)Cc1ccc(O)cc1)C(=O)N[C@@H](CCCCN)C(=O)N[C@@H](CC(C)C)C(=O)N[C@@H](CC(N)=O)C(=O)N[C@@H](CS)C(=O)N1CCC[C@H]1C(=O)N[C@@H](CC(C)C)C(=O)N[C@@H](C)C(=O)N[C@H](C(=O)N[C@@H](CCC(=O)O)C(=O)N[C@H](C(=O)N[C@H](C(=O)N[C@@H](CO)C(=O)N[C@H](C(=O)N[C@@H](CO)C(=O)N[C@H](C(=O)N[C@@H](CS)C(=O)N[C@@H](CO)C(=O)N[C@@H](C)C(=O)N[C@@H](CO)C(=O)N[C@@H](C)C(=O)N[C@@H](Cc1ccc(O)cc1)C(=O)N[C@H](C(=O)O)[C@@H](C)O)C(C)C)C(C)C)C(C)C)[C@@H](C)O)[C@@H](C)O [Gc56] | 200 | 4.40 | greater than 50% | 4.00 | 4.40 | 4.30 |  |  |  |  |  |  |
| CC[C@H](C)[C@H](NC(=O)[C@H](CC(=O)O)NC(=O)[C@H](CO)NC(=O)[C@H](CCC(N)=O)NC(=O)[C@H](CC(C)C)NC(=O)[C@H](C)NC(=O)[C@H](C)NC(=O)[C@@H](NC(=O)[C@H](Cc1ccc(O)cc1)NC(=O)[C@H](CC(N)=O)NC(=O)[C@H](CCC(=O)O)NC(=O)[C@@H](NC(=O)[C@H](CC(=O)O)NC(=O)[C@@H]1CCCN1C(=O)[C@H](Cc1c[nH]cn1)NC(=O)[C@@H](N)CC(N)=O)[C@@H](C)CC)[C@@H](C)CC)C(=O)N[C@@H](C)C(=O)N[C@@H](CC(N)=O)C(=O)N[C@@H](CC(=O)O)C(=O)N[C@@H](CC(C)C)C(=O)N[C@H](C(=O)N[C@@H](CCSC)C(=O)N[C@@H](Cc1c[nH]cn1)C(=O)N[C@@H](Cc1ccc(O)cc1)C(=O)N[C@@H](Cc1ccccc1)C(=O)O)[C@@H](C)O [Gc30] |  | 4.70 | greater than 50% | 4.90 | 4.70 | 4.30 |  |  |  |  |  |  |
| CC[C@H](C)[C@H](NC(=O)[C@@H](NC(=O)[C@H](CC(=O)O)NC(=O)[C@H](CCCCN)NC(=O)[C@H](CCCNC(=N)N)NC(=O)[C@H](CC(N)=O)NC(=O)[C@@H](N)Cc1ccccc1)C(C)C)C(=O)N[C@@H](CC(C)C)C(=O)N[C@@H](CCCNC(=N)N)C(=O)N[C@@H](CCCNC(=N)N)C(=O)N[C@@H](CS)C(=O)N[C@@H](Cc1ccccc1)C(=O)N[C@@H](CC(=O)O)C(=O)N[C@@H](CC(N)=O)C(=O)N[C@@H](CO)C(=O)N[C@@H](Cc1ccc(O)cc1)C(=O)N[C@@H](CCC(N)=O)C(=O)N[C@@H](CO)C(=O)N[C@@H](CS)C(=O)N[C@@H](CC(C)C)C(=O)N[C@@H](CC(C)C)C(=O)N[C@@H](CC(C)C)C(=O)N[C@@H](CCC(=O)O)C(=O)N[C@@H](CCC(N)=O)C(=O)N[C@@H](CC(=O)O)C(=O)O [Gc48] |  |  |  |  |  |  | < 4.00 | 4 | 2 | < 4.00 | 4 | 2 |
| CC[C@H](C)[C@H](NC(=O)CNC(=O)[C@H](CCC(=O)O)NC(=O)[C@H](CCCCN)NC(=O)[C@H](Cc1ccc(O)cc1)NC(=O)[C@@H](NC(=O)[C@H](CCCNC(=N)N)NC(=O)[C@H](CS)NC(=O)[C@H](CC(C)C)NC(=O)[C@H](Cc1c[nH]c2ccccc12)NC(=O)[C@@H](NC(=O)[C@H](CO)NC(=O)[C@H](CS)NC(=O)[C@H](CCCCN)NC(=O)[C@H](CCCCN)NC(=O)[C@H](CC(=O)O)NC(=O)[C@H](Cc1c[nH]cn1)NC(=O)[C@H](CCC(N)=O)NC(=O)[C@H](CCC(=O)O)NC(=O)[C@@H](NC(=O)[C@@H](N)Cc1ccc(O)cc1)[C@@H](C)CC)[C@@H](C)O)C(C)C)C(=O)N[C@@H](CO)C(=O)N[C@H](C(=O)N[C@H](C(=O)N[C@@H](Cc1ccccc1)C(=O)O)[C@@H](C)CC)C(C)C [Gc59] |  |  |  |  |  |  | < 4.00 | 5.7 | 4 | < 4.00 | 5 | 3.6 |
